Source: patent publication US20220153766A1, “CONDENSED TRICYCLIC COMPOUND USED AS KINASE INHIBITOR” (Hangzhou Innogate Pharma Co., Ltd., priority 2019, published 2022)

What was measured:
ALK = ALK (Homo sapiens, UniProt Q9UM73); assay: ALK kinase activity inhibition, Caliper mobility shift assay, method 2; type: biochemical; conditions: ALK 1.25 nM, ATP 30 μM
Description: 2. ALK Kinase Activity Inhibition Experiment:
Method 2: Caliper mobility shift assay was used to measure ALK protein kinase activity. The method is basically the same as method 1, with individual parameters adjusted. The initial concentration of the compound is 1 mM, and sequentially diluted 4-fold to make 6 points (7 points for some individual compounds). Use a dispenser Echo 550 to transfer 250 nL of 100-fold final concentration of the compound to the target plate 3573, add 10 μL ALK with final concentration of 1.25 nM, incubate at room temperature for 10 minutes (the negative control well contains 10 μL kinase buffer and 250 nL 100% DMSO; the positive control well contains 10 μL kinase solution and 250 nL 100% DMSO). On the kinase ALK, add 15 μL of ATP with a final concentration of 30 μM and 3 μM of the substrate peptide No. 22 mixed solution to react for 25 minutes; add 30 μL of stop detection solution containing EDTA to stop the kinase reaction. Use Caliper EZ Reader to read the conversion rate. Inhibition rate %=(Average positive control conversion rate %−Sample conversion rate %/(Average positive control conversion rate %−Average negative control conversion rate %). Among them: negative control wells represent the conversion rate readings without enzyme activity; positive control wells represent the conversion rate readings of wells without compound inhibition. Take the log value of the concentration as the X-axis, and the percentage inhibition rate on the Y-axis. Log (inhibitor) vs. response—Variable slope of analysis software GraphPad Prism 5 was used to fit the curve to obtain the IC50 value of each compound on the enzyme activity. Calculation formula: Y=Bottom+(Top−Bottom)/(1+10^((Log IC50−X)*HillSlope)).

[1] = target: T1, Ba/F3_EGFR del19/T790M/C797S cells (Homo sapiens, UniProt P00533, T790M/C797S, cells depend on it, form not given); assay: Ba/F3_EGFR (del19-T790M-C797S) cell proliferation inhibition, CTG, method 2; type: cell-based; conditions: 2000 cells/well, 72 h, read-out: Ba/F3_EGFR (del19-T790M-C797S) cell proliferation inhibition (IC50 value) Method 2
Description: Take a small amount of cells and count them with ViCell. 2) Adjust the cell density, inoculate the cells in a 384-well plate at 2000/well, and incubate in a 37° C., 5% CO2 incubator for 4 hours. 3) Set up the program of Tecan HP D300, add the compound to the well plate. The maximum initial concentration of the compound is 1-4 μM, 3 folds dilution, 9 concentrations, and the DMSO content in each well is unified to 0.2%.
CTG method detection: 1) Take out the CTG reagent and cell plate and equilibrate at room temperature for 30 min, add 25 μL CTG to each well, shake at medium speed for 2 min, centrifuge at 1000 rpm for 1 minutes, and stand still at room temperature for 10 minutes. 2) Envision instrument reads the chemiluminescence signal value.
Data analysis: IC50 results are analyzed by IDBS's XL-fit 5.0 software.

[2] = Pharmacokinetic study in rats after intragastrical administration; type: in vivo; conditions: male, rat, plasma, po, SD rats, 3 mg/kg; for AUC(0-t): read-out: AUC0-24 h
Description: Example 55: Pharmacokinetic Study in Rats
Instruments: XEVO TQ-S LC/MS instrument produced by Waters. All measurement data is collected and processed by Masslynx V4.1 software, and the data is calculated and processed by Microsoft Excel. Using WinNonLin 8.0 software, the statistical moment method was used to calculate the pharmacokinetic parameters. Mainly include kinetic parameters Tmax, T1/2, Cmax, AUClast etc. […] Injection volume: 5 μL.
Animals: 3 male SD rats with a weight range of 200-220 g. After purchase, they will be kept in the laboratory of the Experimental Animal Center for 2 days and then used. They will be fasted for 12 hours predose and 4 hours after dosing. Drinking water is free during the test. After the rats were gavage, blood samples were taken according to the established time point.
Solvent: 0.5% Methylcellulose (aqueous solution containing 0.4% Tween 80 and 1% ethanol). Preparation of the solution for intragastrical administration: accurately weigh the compound, add it to the solvent, and ultrasonically at room temperature for 5 minutes to completely dissolve the drug, and prepare a 0.3 mg/ml medicinal solution.
Pharmaceutical samples: representative compounds of the structure shown in the patented formula (I) of the present invention, generally, multiple samples with similar structures (with a molecular weight difference of more than 2 units) are taken, accurately weighed, and administered together (cassette PK). In this way, multiple compounds can be screened at the same time and their oral absorption rates can be compared. A single administration was also used to study the pharmacokinetics of the drug sample in rats.
After intragastrical administration, blood was taken from the orbit at 0.25, 0.5, 1, 2, 4, 9, 12 and 24 hours, and placed in a plastic centrifuge tube pretreated with sodium heparin. After centrifugation, the supernatant plasma was used for LC-MS/MS analysis.
Accurately weigh the compounds to prepare different concentrations, perform quantitative analysis on mass spectrometry to establish a standard curve, and then test the concentration of the above-mentioned compound in the plasma to obtain the compound concentration at different time points. All measurement data are collected and processed by relevant software, and the statistical moment method is used to calculate the pharmacokinetic parameters (mainly including kinetic parameters Tmax, T1/2, Cmax, AUClast etc). The results are as follows:
Table 7: Pharmacokinetic Parameters of the Compounds after Intragastrical Administration in SD Rats

EGFR (T790M/L858R/C797S) = EGFR (T790M/L858R/C797S) (Homo sapiens, UniProt P00533, C797S/L858R/T790M); assay: EGFR (T790M/L858R/C797S) kinase activity inhibition, Caliper mobility shift assay; type: biochemical; conditions: kinase 2.5 nM, ATP 40 μM
Description: The basic method is the same as ALK activity test method 2. The test concentration of the compound starts at 2 μM, and is diluted 5 folds into 6 (7 for individual compounds) concentration points. […] Add 30 μL of stop solution containing EDTA to stop the kinase reaction. Use Caliper EZ Reader to read the conversion rate. Inhibition rate %=(Average positive control conversion rate %−Sample conversion rate %/(Average positive control conversion rate %−Average negative control conversion rate %). Among them: negative control wells represent the conversion rate readings without enzyme activity; positive control wells represent the conversion rate readings of wells without compound inhibition. Take the log value of the concentration as the X-axis, and the percentage inhibition rate on the Y-axis. Log (inhibitor) vs. response—Variable slope of analysis software GraphPad Prism 5 was used to fit the curve to obtain the IC50 value of each compound on the enzyme activity. Calculation formula: Y=Bottom+(Top−Bottom)/(1+10^((Log IC50−X)*HillSlope)).

MAP4K1 (HPK1) = MAP4K1 (HPK1) (Homo sapiens, UniProt Q92918); assay: MAP4K1 (HPK1) kinase activity inhibition, Caliper mobility shift assay; type: biochemical; conditions: kinase 1.25 nM, ATP 10.1 μM
Description: 4. MAP4K1 (HPK1) Kinase Activity Inhibition Experiment: Caliper mobility shift assay was used to detect the inhibitory effect of the compound on MAP4K1 (HPK1) kinase activity. The test concentration of the compound starts at 500 nM, and is diluted 5 folds into 5 concentration points. Use a dispenser Echo 550 to transfer 250 nL 100-fold final concentration of the compound to the target plate 3573, add 10 μL of MAP4K1 (HPK1) kinase solution with a final concentration of 1.25 nM, and incubate for 10 minutes at room temperature (the negative control well contains 10 μL kinase buffer and 250 nL 100% DMSO; the positive control well contains 10 μL kinase solution and 250 nL 100% DMSO). On the kinase MAP4K1 (HPK1), add 15 μL of ATP with a final concentration of 10.1 μM and 3 μM substrate peptide No. 25 mixed solution to react for 120 minutes. Add 30 μL of stop solution containing EDTA to stop the kinase reaction. Use Caliper EZ Reader to read the conversion rate. Inhibition rate %=(Average positive control conversion rate %−Sample conversion rate %/(Average positive control conversion rate %−Average negative control conversion rate %). Among them: negative control wells represent the conversion rate readings without enzyme activity; positive control wells represent the conversion rate readings of wells without compound inhibition. Take the log value of the concentration as the X-axis, and the percentage inhibition rate on the Y-axis. Log (inhibitor) vs. response—Variable slope of analysis software GraphPad Prism 5 was used to fit the curve to obtain the IC50 value of each compound on the enzyme activity. Calculation formula: Y=Bottom+(Top−Bottom)/(1+10 ^((Log IC50−X)*HillSlope)).

[3] = target: T1, Ba/F3_EGFR del19/T790M/C797S cells; assay: Ba/F3_EGFR (del19-T790M-C797S) cell proliferation inhibition, CTG, method 1; type: cell-based
Description: The cells were cultured in a 37° C., 5% CO2 incubator.
Cell plating and compound treatment: 1) Cells are routinely cultured until the cell saturation is 80%-90%, and when the number reaches the requirement, the cells are collected. 2) Resuspend in the corresponding fresh medium, take a small amount of cells to count, and prepare a cell suspension with a suitable density. 3) Inoculate the cell suspension into a 384-well plate at 700 cells/well, 30 μL per well. 4) Use Echo to add the compound to the corresponding cell well. The maximum starting concentration of the compound is 1-10 μM, 3 folds dilution, 8 concentrations.
CTG method detection: 1) Add 30 μL of CTG reagent (CelltiterGlo kit) to each well, and let it stand for 30 minutes at 37° C. and 5% CO2 in the dark. 2) Use Envision instrument to read the chemiluminescence signal value.
Data analysis: IC50 results are analyzed by GraphPad Prism 6 software. […] X: log value of compound concentration; Y: inhibition rate (% inhibition); inhibition rate (% inhibition)=(blank control well reading−compound well reading)/(blank control well reading−positive control reading)×100.

[4] = 700 cells/well, 72 h, read-out: Ba/F3_EGFR (del19-T790M-C797S) cell proliferation inhibition (IC50 value) Method 1

Chain of MAP4K1 (HPK1) (Q92918 whole entry): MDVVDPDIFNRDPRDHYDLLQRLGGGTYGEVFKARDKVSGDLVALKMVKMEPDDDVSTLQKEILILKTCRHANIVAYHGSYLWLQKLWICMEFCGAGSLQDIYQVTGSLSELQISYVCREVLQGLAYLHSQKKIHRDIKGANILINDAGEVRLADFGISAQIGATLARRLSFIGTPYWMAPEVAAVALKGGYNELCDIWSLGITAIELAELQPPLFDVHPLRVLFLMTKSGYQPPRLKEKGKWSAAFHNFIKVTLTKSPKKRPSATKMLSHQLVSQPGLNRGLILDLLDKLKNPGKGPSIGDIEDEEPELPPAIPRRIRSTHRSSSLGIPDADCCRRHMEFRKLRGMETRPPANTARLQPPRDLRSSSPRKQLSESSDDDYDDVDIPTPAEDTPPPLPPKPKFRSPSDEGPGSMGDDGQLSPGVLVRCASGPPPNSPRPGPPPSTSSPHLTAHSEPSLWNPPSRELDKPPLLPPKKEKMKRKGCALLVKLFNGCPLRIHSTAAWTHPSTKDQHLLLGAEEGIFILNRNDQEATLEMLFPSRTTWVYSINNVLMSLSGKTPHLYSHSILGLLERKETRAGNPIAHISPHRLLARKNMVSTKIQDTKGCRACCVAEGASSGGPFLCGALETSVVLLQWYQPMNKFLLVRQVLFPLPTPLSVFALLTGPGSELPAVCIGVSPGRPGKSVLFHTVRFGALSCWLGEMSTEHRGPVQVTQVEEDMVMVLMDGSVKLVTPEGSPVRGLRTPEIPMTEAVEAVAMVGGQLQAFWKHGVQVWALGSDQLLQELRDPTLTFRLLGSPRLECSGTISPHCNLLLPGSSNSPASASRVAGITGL
T1 sequence (P00533 with tags, fused parts or gaps DEL746-750/T790M/C797S, form open): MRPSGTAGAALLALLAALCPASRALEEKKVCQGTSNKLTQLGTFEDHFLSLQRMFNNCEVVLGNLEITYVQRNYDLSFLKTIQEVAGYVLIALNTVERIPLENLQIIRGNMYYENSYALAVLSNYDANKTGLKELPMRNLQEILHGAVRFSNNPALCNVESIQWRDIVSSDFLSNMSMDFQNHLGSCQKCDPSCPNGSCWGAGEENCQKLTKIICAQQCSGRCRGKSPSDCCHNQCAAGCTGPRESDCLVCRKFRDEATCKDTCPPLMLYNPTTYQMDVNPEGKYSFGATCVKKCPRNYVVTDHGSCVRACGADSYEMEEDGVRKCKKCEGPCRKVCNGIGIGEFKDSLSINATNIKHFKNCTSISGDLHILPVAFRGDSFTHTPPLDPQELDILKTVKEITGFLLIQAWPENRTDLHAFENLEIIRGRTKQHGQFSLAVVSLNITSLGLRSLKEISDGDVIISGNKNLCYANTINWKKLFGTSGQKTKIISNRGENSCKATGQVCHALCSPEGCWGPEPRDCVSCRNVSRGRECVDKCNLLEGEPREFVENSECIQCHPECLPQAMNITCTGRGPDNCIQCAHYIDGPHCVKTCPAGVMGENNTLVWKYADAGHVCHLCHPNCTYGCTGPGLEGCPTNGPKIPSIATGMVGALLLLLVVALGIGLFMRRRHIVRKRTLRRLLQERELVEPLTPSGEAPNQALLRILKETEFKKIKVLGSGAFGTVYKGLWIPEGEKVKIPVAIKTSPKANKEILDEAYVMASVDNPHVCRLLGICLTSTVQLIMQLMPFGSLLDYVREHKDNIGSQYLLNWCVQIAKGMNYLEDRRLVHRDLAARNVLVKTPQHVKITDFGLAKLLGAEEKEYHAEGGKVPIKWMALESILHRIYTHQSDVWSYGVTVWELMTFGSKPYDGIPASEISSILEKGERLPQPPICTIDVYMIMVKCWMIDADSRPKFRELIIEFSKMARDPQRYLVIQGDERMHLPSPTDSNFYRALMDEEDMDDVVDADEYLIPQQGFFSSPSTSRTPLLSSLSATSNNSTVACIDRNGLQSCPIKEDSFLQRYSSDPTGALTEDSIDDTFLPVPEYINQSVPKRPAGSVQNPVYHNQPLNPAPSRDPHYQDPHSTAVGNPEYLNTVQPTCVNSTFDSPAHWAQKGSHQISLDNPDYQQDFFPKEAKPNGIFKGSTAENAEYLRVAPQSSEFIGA
Chain of EGFR (T790M/L858R/C797S) (P00533 25-1210 T790M/C797S/L858R): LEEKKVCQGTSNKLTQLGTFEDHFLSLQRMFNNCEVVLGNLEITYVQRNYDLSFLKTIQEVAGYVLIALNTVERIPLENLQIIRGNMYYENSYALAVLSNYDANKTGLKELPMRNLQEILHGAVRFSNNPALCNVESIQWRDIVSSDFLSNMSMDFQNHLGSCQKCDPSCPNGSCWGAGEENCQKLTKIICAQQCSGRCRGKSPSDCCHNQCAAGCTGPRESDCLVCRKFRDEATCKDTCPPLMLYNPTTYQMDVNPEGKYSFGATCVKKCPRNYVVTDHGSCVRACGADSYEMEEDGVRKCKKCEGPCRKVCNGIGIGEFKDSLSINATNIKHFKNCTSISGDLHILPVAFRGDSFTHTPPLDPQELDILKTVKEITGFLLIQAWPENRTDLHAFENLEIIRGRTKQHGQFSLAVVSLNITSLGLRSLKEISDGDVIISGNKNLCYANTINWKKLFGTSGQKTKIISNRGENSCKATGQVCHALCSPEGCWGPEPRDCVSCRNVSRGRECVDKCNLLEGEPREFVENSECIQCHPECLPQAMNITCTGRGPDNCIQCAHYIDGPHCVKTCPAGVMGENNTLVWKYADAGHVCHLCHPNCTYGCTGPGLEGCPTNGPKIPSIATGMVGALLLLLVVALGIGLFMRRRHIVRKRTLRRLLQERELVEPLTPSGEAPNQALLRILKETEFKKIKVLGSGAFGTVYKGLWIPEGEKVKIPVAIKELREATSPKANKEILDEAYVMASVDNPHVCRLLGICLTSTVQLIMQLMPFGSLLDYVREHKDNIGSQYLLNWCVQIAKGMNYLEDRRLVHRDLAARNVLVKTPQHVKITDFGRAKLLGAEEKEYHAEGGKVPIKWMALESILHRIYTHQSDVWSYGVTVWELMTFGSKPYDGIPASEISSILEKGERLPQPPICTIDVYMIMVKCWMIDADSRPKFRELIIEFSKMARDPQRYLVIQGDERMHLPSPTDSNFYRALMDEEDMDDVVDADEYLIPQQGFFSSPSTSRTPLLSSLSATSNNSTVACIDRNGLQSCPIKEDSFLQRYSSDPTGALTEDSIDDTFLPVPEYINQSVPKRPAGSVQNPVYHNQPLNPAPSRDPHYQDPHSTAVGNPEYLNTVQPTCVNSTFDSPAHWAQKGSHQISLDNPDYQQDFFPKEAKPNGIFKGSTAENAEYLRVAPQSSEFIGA
Chain of ALK (Q9UM73 19-1620): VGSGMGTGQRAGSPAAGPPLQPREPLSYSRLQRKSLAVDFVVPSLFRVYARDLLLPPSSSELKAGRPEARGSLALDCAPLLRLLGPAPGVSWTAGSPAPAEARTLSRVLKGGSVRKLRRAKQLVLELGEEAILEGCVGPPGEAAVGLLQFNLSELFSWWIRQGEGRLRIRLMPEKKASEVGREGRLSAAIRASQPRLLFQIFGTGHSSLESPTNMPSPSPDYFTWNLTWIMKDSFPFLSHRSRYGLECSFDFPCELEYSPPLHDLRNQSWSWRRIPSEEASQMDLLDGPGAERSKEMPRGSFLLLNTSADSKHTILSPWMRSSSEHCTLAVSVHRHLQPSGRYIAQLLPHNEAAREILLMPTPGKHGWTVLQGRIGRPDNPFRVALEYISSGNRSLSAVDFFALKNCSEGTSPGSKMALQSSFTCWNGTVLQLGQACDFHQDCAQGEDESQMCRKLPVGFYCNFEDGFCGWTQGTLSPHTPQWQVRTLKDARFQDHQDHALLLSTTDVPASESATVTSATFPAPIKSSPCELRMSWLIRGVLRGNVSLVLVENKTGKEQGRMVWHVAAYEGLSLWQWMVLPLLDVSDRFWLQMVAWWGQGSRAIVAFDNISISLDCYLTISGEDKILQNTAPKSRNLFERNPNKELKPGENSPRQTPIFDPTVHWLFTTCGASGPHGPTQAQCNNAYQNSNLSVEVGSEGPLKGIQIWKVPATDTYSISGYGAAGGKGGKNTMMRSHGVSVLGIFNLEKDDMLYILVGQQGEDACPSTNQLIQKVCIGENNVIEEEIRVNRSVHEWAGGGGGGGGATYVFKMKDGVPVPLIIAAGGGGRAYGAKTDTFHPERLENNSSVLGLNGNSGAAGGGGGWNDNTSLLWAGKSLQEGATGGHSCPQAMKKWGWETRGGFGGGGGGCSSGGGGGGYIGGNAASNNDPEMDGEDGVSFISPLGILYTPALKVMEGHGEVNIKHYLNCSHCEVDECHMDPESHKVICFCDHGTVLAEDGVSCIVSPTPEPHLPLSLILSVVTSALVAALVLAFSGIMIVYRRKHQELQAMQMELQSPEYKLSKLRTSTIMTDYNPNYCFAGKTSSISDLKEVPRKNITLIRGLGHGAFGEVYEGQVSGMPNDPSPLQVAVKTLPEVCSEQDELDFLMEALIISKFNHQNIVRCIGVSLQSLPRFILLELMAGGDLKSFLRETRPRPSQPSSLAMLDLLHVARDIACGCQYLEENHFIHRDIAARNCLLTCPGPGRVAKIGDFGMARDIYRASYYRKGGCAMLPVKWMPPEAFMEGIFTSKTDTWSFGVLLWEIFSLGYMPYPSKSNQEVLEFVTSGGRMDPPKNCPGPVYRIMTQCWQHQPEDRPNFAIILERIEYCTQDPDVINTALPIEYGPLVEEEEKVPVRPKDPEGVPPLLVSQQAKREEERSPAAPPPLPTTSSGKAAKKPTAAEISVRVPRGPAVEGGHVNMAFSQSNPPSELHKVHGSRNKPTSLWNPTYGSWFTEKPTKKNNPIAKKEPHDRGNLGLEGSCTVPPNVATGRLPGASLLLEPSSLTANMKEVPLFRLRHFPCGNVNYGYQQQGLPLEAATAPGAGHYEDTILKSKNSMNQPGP

Row | SMILES | IC50 (ALK) | GI50 [1] | Cmax [2] | Tmax [2] | half-life [2] | AUC(0-t) [2] | IC50 (EGFR (T790M/L858R/C797S)) | IC50 (MAP4K1 (HPK1)) | GI50 ([3]; read-out: Ba/F3_EGFR (del19-T790M-C797S) cell proliferation inhibition (IC50 value) Method 1, 700 cells/well, 72 h) | GI50 [3, 4]
1 | CC(=O)N1CCC(N2CCN3c4c(C)cc(Nc5ncc(Cl)c(Nc6ccccc6P(C)(C)=O)n5)cc4OC[C@H]3C2)CC1 [Compound 32R] | 1 to 50 nM | 20 to 100 nM | 306 ng/mL | 2 h | 1.95 h | 3420 ng·h/mL | < 3 nM | ≤ 1 nM | – | –
2 | CN1CCC(N2CCN3c4c(F)cc(Nc5ncc(Cl)c(Nc6ccccc6P(C)(C)=O)n5)cc4OC[C@@H]3C2)CC1 [Compound 35S] | – | 20 to 100 nM | 15 ng/mL | 4.33 h | 3.97 h | 179 ng·h/mL | < 3 nM | ≤ 1 nM | – | –
3 | Cc1cc(Nc2ncc(Cl)c(Nc3ccccc3P(C)(C)=O)n2)cc2c1N1CCN(C3CCN(C4CC4)CC3)C[C@@H]1CO2 [Compound 33R] | – | 20 to 100 nM | 120 ng/mL | 7.33 h | 3.88 h | 1780 ng·h/mL | < 3 nM | ≤ 1 nM | – | –
4 | COc1cc(N2CCC(N3CCN(C)CC3)CC2)ccc1Nc1ncc(Cl)c(Nc2ccccc2P(C)(C)=O)n1 [Brigatinib, reference compound] | – | > 200 nM | – | – | – | – | – | 10 to 100 nM | 100 to 200 nM | –
5 | Cc1cc(Nc2ncc(Cl)c(Nc3ccccc3P(C)(C)=O)n2)cc2c1N1CCN(C3CCOCC3)C[C@H]1CO2 [Compound 31S] | – | 20 to 100 nM | 160 ng/mL | 1 h | 6.27 h | 1350 ng·h/mL | < 3 nM | ≤ 1 nM | – | –
6 | Cc1cc(Nc2ncc(Cl)c(Nc3ccccc3P(C)(C)=O)n2)cc2c1N1CCN(C3CN(C)C3)C[C@H]1CO2 [Compound 34S] | – | < 20 nM | – | – | – | – | < 3 nM | ≤ 1 nM | – | –
7 | CCN1CCC(N2CCN3c4c(C)cc(Nc5ncc(Cl)c(Nc6ccccc6P(C)(C)=O)n5)cc4OC[C@H]3C2)CC1 [Compound 30R] | 1 to 50 nM | 20 to 100 nM | – | – | – | – | < 3 nM | ≤ 1 nM | – | –
8 | Cc1cc(Nc2ncc(Cl)c(Nc3ccccc3P(C)(C)=O)n2)cc2c1N1CCN(C3CCOCC3)C[C@@H]1CO2 [Compound 31R] | 1 to 50 nM | 20 to 100 nM | 78.4 ng/mL | 6.33 h | 5.18 h | 687 ng·h/mL | < 3 nM | ≤ 1 nM | – | –
9 | Cc1cc(Nc2ncc(Cl)c(Nc3ccccc3P(C)(C)=O)n2)cc2c1N1CCN(C)C[C@@H]1CO2 [Compound 25R] | 1 to 50 nM | – | 61.4 ng/mL | 6.33 h | 6.75 h | 585 ng·h/mL | < 3 nM | ≤ 1 nM | – | < 20 nM
10 | C=CC(=O)N1CCN2c3c(C)cc(Nc4ncc(Cl)c(Nc5ccccc5P(C)(C)=O)n4)cc3OC[C@H]2C1 [Compound 26R] | 1 to 50 nM | – | – | – | – | – | 3 to 15 nM | ≤ 1 nM | – | < 20 nM
